Laboratory results taken from patent US12195427B2, “MASP-2 inhibitors and methods of use” (priority 2018, dated 2025).

Target: MASP-2 CCP2-SP (Homo sapiens (Human), UniProt O00187)
Assay: MASP-2 co-crystallization, X-ray crystallography and structure analysis (H-bonds, van der Waals contacts);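 as to Ligand-pharmacophore element distance, pharmacophore element C2: distance from averaged pharmacophore element to bound ligand; missing value means element absent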;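 as to Ligand-pharmacophore element distance, pharmacophore element C3: distance from averaged pharmacophore element to bound ligand; missing value means element absent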;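 as to Ligand-pharmacophore element distance, pharmacophore element C4: distance from averaged pharmacophore element to bound ligand; missing value means element absent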;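 as to Ligand-pharmacophore element distance, pharmacophore element C5: distance from averaged pharmacophore element to bound ligand; missing value means element absent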
Design: van der Waals contact distance, MASP-2 HIS 483 atom CD2 / van der Waals contact distance, MASP-2 HIS 483 atom NE2 / van der Waals contact distance, SER 654 C to compound atom / van der Waals contact distance, SER 654 O to compound atom / van der Waals contact distance, TRP 655 C to compound atom / van der Waals contact distance, MASP-2 GLY 528 atom CA / van der Waals contact distance TRP 655 atom CZ3 / van der Waals contact distance TRP 655 atom N / van der Waals contact distance TRP 655 atom CE3 / van der Waals contact distance GLY 656 atom C / van der Waals contact distance GLY 656 atom CA / van der Waals contact distance GLY 656 atom O / van der Waals contact distance, MASP-2 TYR 607 atom CD1 / van der Waals contact distance, MASP-2 PRO 606 atom O / d(C3,CA1) / d(CA1,N1)2 / d(H4,O1) / d(H4,O2) / d(O1,O2) / d(CA1,O2) / d(CA6,O1) / d(CA6,O2) / d(CA1,C5) / d(O2,H3) / d(N2,C2) / d(CA5,N2) / d(N2,C4) / d(N2,C6) / d(N2,CA3) / d(N2,O3) / d(O4,H2): unit not given beside the values
Source text: This example illustrates the preparation of recombinant MASP-2 protein, based on UniProt O00187, human mannan-binding lectin serine protease 2. Expression constructs for human MASP-2 CCP2-SP and CCP2-SP-6HIS were generated for recombinant expression in E. coli cells.
Typically, crystallization hits were obtained by screening against […] 96-well crystallization reagent kits (GRAS6, GRAS2, Hampton Research; MORPHEUS, Molecular Dimensions; Wizard 1&2 Cryo, Rigaku Reagents) and crystal growth was inspected by optical microscopy. Crystals were used directly or further optimized for X-ray diffraction. Crystals were captured with cryogenic loops and dipped into liquid nitrogen directly or cryoprotected with a 20% glycerol in crystallization formulation before flash-cooling in liquid nitrogen.
Thereafter crystals are transferred once or twice for soaking within the crystallization solution containing the MASP-2 inhibitor.
Crystals were diffracted with synchrotron X-rays of […] and X-ray diffraction datasets were collected at beamlines SSRL BL9-2, BL14-1, BL12-2 as well as ALS sector 5 using Dectris Pilatus and Eiger detectors. Structures were determined by molecular replacement using portions of the structure 1Q3X as search models and partially refined with Buster 2.10.2 or Refmac 5.8. […] When multiple ligand poses were observed, for instance arising from multiple molecules in the asymmetric unit or refined dual poses within the same molecule, only one pose was selected and analyzed.
LigPlot+ calls these ‘nonbonded contacts’ or ‘hydrophobic contacts’. Despite the name, there are atom pairings that include possible H-bonds. Thus, in some instances, the Table A2 also contains H-bond interactions.

[1] = Table A5-1 pharmacophore: distance between elements, S2/S1 region
[2] = Table A5-2 pharmacophore distance, S3/S4 region

Sequence of MASP-2 CCP2-SP (O00187 445-686): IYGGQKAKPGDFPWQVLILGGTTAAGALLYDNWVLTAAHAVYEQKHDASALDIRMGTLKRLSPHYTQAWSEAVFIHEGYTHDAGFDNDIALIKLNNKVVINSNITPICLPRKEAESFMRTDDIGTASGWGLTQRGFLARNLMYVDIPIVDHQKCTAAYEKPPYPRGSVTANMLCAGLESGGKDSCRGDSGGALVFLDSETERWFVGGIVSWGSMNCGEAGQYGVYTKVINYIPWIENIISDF
Sequence of MASP-2 CCP2-SP (O00187 364-432 partner): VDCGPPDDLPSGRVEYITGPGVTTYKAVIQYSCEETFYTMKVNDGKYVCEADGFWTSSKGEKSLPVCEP

CC(NC(=O)C1CC(Cc2ccccc2)CN1)C(=O)NCc1cnc2c(c1)c(Cl)cn2C.Cl.Cl (mixture of isomers) [1450_A]
Ligand-pharmacophore element distance, pharmacophore element C2 (Table A4-1, element C2): 0 | Ligand-pharmacophore element distance, pharmacophore element C3 (Table A4-1, element C3): 0 | Ligand-pharmacophore element distance, pharmacophore element C4 (Table A4-1, element C4): 0 | Ligand-pharmacophore element distance, pharmacophore element C5 (Table A4-1, element C5): 0.34 | Ligand-pharmacophore element distance, pharmacophore element C6 (Table A4-1, element C6): 0 | Ligand-pharmacophore element distance, pharmacophore element C7 (Table A4-1, element C7): 0.72 | Ligand-pharmacophore element distance, pharmacophore element CA1 (Table A4-1, element CA1): 1.03 | Ligand-pharmacophore element distance, pharmacophore element CA2 (Table A4-1, element CA2): 0.4 | Ligand-pharmacophore element distance, pharmacophore element CA3 (Table A4-1, element CA3): 0 | Ligand-pharmacophore element distance, pharmacophore element CA4 (Table A4-1, element CA4): 0 | Ligand-pharmacophore element distance, pharmacophore element CA5 (Table A4-1, element CA5): 0 | Ligand-pharmacophore element distance, pharmacophore element CA6 (Table A4-1, element CA6): 0 | d(CA1,C5) [1]: 3.55 | d(CA1,O1) [1]: 5.47 | d(CA1,O2) [1]: 4.73 | d(CA1,O4) [1]: 1.75 | d(H4,O1) [1]: 3.16 | d(H4,O2) [1]: 3.57 | d(O1,O2) [1]: 3.11 | d(N2,CA2) [2]: 5.88 | d(O2,H3) [2]: 2.31 | d(O2,N2) [2]: 2.81 | a(C5, CA1, O1) (Table A6-1 pharmacophore angle): 150.97 | a(CA1, O1, O2) (Table A6-1 pharmacophore angle): 94.14 | a(O1, CA1, C7) (Table A6-1 pharmacophore angle): 136.18 | a(O1, CA1, O4) (Table A6-1 pharmacophore angle): 68.80 | a(O1, O2, H4) (Table A6-1 pharmacophore angle): 125.38 | a(O1, O2, H3) (Table A6-2 pharmacophore angle): 127.40 | a(O1, O2, N2) (Table A6-2 pharmacophore angle): 139.62 | a(O2, N2, CA2) (Table A6-2 pharmacophore angle): 154.51 | Pharmacophore torsion angle a(O1, O2, N2, CA2) (Table A7-2, between pharmacophore elements of the bound compound): 120.74

C[C@H](NC(=O)[C@H]1C[C@@H](c2ccccc2)CCN1)C(=O)NCc1ccc(N)nc1 (stereo in doubt) [compound 1025]
H-bond distance to MASP-2 ASP 627 atom OD2 (Table A1 (H-Bonds), ASP 627 OD2): 3.11 | H-bond distance to MASP-2 SER 628 atom O (Table A1 (H-Bonds), SER 628 O): 2.38 | van der Waals contact distance, MASP-2 HIS 483 atom CD2 (Table A2-1): 3.68 | van der Waals contact distance, MASP-2 HIS 483 atom CE1 (Table A2-1): 3.81 | van der Waals contact distance, MASP-2 PHE 529 atom CZ (Table A2-3): 3.88 | van der Waals contact distance, SER 654 O to compound atom (Table A2-12): 3.51 | van der Waals contact distance, TRP 655 CA to compound atom (Table A2-12): 3.68 | van der Waals contact distance, MASP-2 amino acid atom to compound atom (Table A2 section before Table A2-8): 3.84
